# Values quoted from earlier work, collected in patent US20080038219A1, “Novel Composition for a Topical Skin Treatment Base and Medicated Applications Thereof” (CALGENEX CORPORATION, priority 2006, published 2008).
# Tested on: mild-to-moderate acne
# Details: versus tretinoin 0.05%, benzoyl peroxide 5%, topical erythromycin 2%
smiles,measurement,value
O=C(O)CCCCCCCC(=O)O [azelaic acid],efficacy in treatment of mild-to-moderate acne,efficacy comparable
